Experimental data: ChEMBL document CHEMBL5576091, “2'-β-Methylselenyl nucleos(t)ide analogs as reverse transcriptase inhibitors against diverse HIV mutants” (Bioorg Med Chem, 2024)
The source made the active and inactive calls. No cut-off for these calls is given here.

How the values were obtained:
[1] = tested on: Human immunodeficiency virus 1; experiment: Antiviral activity against wild type HIV-1 infected in human TZM-bl cells incubated for 48 hrs by steady glo reagent based […] luminometer analysis; format: functional, organism-based; details: Human immunodeficiency virus 1, TZM-bl
[2] = Cytotoxicity against human TZM-bl cells assessed as reduction in cell viability incubated for 48 hrs by MTT assay; format: toxicity, cell-based
[3] = Cytotoxicity against human MT4 cells assessed as reduction in cell viability incubated for 5 days by MTT assay; format: toxicity, cell-based; details: time 5 day
[4] = tested on: Human immunodeficiency virus 1; experiment: Antiviral activity against lamivudine resistant HIV-1 harboring RT M184V mutant infected in human TZM-bl cells incubated for 48 hrs by steady glo reagent based […] luminometer analysis; format: functional, organism-based; details: Human immunodeficiency virus 1, TZM-bl
[5] = tested on: Human immunodeficiency virus 1; experiment: Antiviral activity against azidothymidine resistant HIV-1 harboring RT M41L/T215Y mutant infected in human TZM-bl cells incubated for 48 hrs by steady glo reagent based […] luminometer analysis; format: functional, organism-based; details: Human immunodeficiency virus 1, TZM-bl
[6] = tested on: Human immunodeficiency virus 1; experiment: Antiviral activity against multidrug resistant HIV-1 harboring RT M41L/T69SSG/T215Y mutant infected in human TZM-bl cells incubated for 48 hrs by steady glo reagent based […] luminometer analysis; format: functional, organism-based; details: Human immunodeficiency virus 1, TZM-bl
[7] = target: Human immunodeficiency virus type 1 reverse transcriptase (Human immunodeficiency virus 1) (UniProt Q72547); experiment: Substrate activity at HIV-1 reverse transcriptase assessed as formation of single elongation product at 50 to 400 uM incubated for 60 mins in presence of 14.4 ng/uL enzyme, FAM labeled primer DNA, template RNA, dNTPs by fluorescence based primer extension assay; details: dose 50-400 µM
Homo sapiens [8] = species: Homo sapiens; experiment: Substrate activity at Taq DNA polymerase (unknown origin) assessed as incorporation into DNA incubated for 60 mins in presence of FAM labeled primer DNA, template DNA, dNTPs by fluorescence based primer extension assay
Homo sapiens [9] = species: Homo sapiens; experiment: Substrate activity at Phi29 DNA polymerase (unknown origin) assessed as incorporation into DNA incubated for 60 mins in presence of FAM labeled primer DNA, template DNA, dNTPs by fluorescence based primer extension assay
[10] = tested on: Avian myeloblastosis virus; experiment: Substrate activity at Avian myeloblastosis virus reverse transcriptase assessed as incorporation into DNA incubated for 60 mins in presence of FAM labeled primer DNA, template DNA, dNTPs by fluorescence based primer extension assay
[11] = target: Human immunodeficiency virus type 1 reverse transcriptase (Human immunodeficiency virus 1) (UniProt Q72547); experiment: (§1) Substrate activity at HIV-1 reverse transcriptase assessed as formation of single elongation product at 100 uM incubated for 60 mins in presence of FAM labeled 13-mer primer DNA, 20-mer template RNA, dNTPs by fluorescence based primer extension assay
[12] = target: Human immunodeficiency virus type 1 reverse transcriptase (Human immunodeficiency virus 1) (UniProt Q72547); experiment: as §1, with “product by measuring elongation efficiency” for “product”, “assay relative to control” for “assay”
[13] = target: Human immunodeficiency virus type 1 reverse transcriptase (Human immunodeficiency virus 1) (UniProt Q72547); experiment: Substrate activity at HIV-1 reverse transcriptase assessed as formation of single elongation product at 400 uM in presence of 3.6 ng/uL enzyme, FAM labeled 13-mer primer DNA, 20-mer template RNA, dNTPs by fluorescence based primer extension assay; details: time 0-60 min, TDE = time-dependent effect
[14] = target: Human immunodeficiency virus type 1 reverse transcriptase (Human immunodeficiency virus 1) (UniProt Q72547); experiment: (§2) Substrate activity at HIV-1 reverse transcriptase assessed as formation of single elongation product by measuring elongation efficiency at 400 uM incubated for 60 mins in presence of 3.6 ng/uL enzyme, FAM labeled 13-mer primer DNA, 20-mer template RNA, dNTPs by fluorescence based primer extension assay relative to control
[15] = target: Human immunodeficiency virus type 1 reverse transcriptase (Human immunodeficiency virus 1) (UniProt Q72547); experiment: as §2, with “5” for “60”, “14.4” for “3.6”
[16] = target: Human immunodeficiency virus type 1 reverse transcriptase (Human immunodeficiency virus 1) (UniProt Q72547); experiment: as §2, with “14.4” for “3.6”
[17] = target: Human immunodeficiency virus type 1 reverse transcriptase (Human immunodeficiency virus 1) (UniProt Q72547); experiment: Substrate activity at HIV-1 reverse transcriptase assessed as formation of multiple elongation products at 50 to 400 uM incubated for 60 mins in presence of 14.4 ng/uL enzyme, FAM labeled primer DNA, template RNA, dNTPs by fluorescence based primer extension assay; details: dose 50-400 µM
[18] = target: Human immunodeficiency virus type 1 reverse transcriptase (Human immunodeficiency virus 1) (UniProt Q72547); experiment: Substrate activity at HIV-1 reverse transcriptase assessed as 14-mer product formation incubated for 60 mins in presence of 14.4 ng/uL enzyme, FAM labeled primer DNA, template RNA, dNTPs by fluorescence based primer extension assay; details: dose 50-400 µM
[19] = target: Human immunodeficiency virus type 1 reverse transcriptase (Human immunodeficiency virus 1) (UniProt Q72547); experiment: Substrate activity at HIV-1 reverse transcriptase assessed as 15-mer product formation incubated for 60 mins in presence of 14.4 ng/uL enzyme, FAM labeled primer DNA, template RNA, dNTPs by fluorescence based primer extension assay; details: dose 50-400 µM
[20] = target: Human immunodeficiency virus type 1 reverse transcriptase (Human immunodeficiency virus 1) (UniProt Q72547); experiment: Substrate activity at HIV-1 reverse transcriptase assessed as mismatch elongation mediated 19-mer product formation at 50 to 400 uM incubated for 60 mins in presence of 14.4 ng/uL enzyme, FAM labeled primer DNA, template RNA, dNTPs by fluorescence based primer extension assay; details: dose 50-400 µM
[21] = target: Human immunodeficiency virus type 1 reverse transcriptase (Human immunodeficiency virus 1) (UniProt Q72547); experiment: Substrate activity at HIV-1 reverse transcriptase assessed as mismatch elongation mediated 20-mer product formation at 50 to 400 uM incubated for 60 mins in presence of 14.4 ng/uL enzyme, FAM labeled primer DNA, template RNA, dNTPs by fluorescence based primer extension assay; details: dose 50-400 µM
[22] = target: Human immunodeficiency virus type 1 reverse transcriptase (Human immunodeficiency virus 1) (UniProt Q72547); experiment: Substrate activity at HIV-1 reverse transcriptase assessed as increase in multiple base elongation product at 100 uM in presence of FAM labeled 13-mer primer DNA, 20-mer template RNA, dNTPs by fluorescence based primer extension assay; details: time 0-60 min, TDE = time-dependent effect

SMILES	EC50 [1] [µM]	CC50 at 48 h [2] [µM]	CC50 at 120 h [3] [µM]	EC50 [4] [µM]	EC50 [5] [µM]	EC50 [6] [µM]	further results
C[Se][C@H]1[C@H](O)[C@@H](COP(=O)(N[C@@H](C)C(=O)OC(C)C)Oc2ccccc2)O[C@H]1n1cnc2c(=O)[nH]c(N)nc21 (stereo not given in full)	> 20	63	51	–	–	–	–
C[Se][C@H]1[C@H](O)[C@@H](CO[P@@](=O)(N[C@@H](C)C(=O)OC(C)C)Oc2ccccc2)O[C@H]1n1cnc2c(N)ncnc21	2.2	> 100	> 100	5.7	5.8	2.8	–
C[Se][C@H]1[C@H](O)[C@@H](CO)O[C@H]1n1cnc2c(N)ncnc21	> 100	> 100	> 100	> 100	> 100	> 100	–
C[Se][C@H]1[C@H](O)[C@@H](CO[P@@](=O)(N[C@@H](C)C(=O)OC(C)C)Oc2ccccc2)O[C@H]1n1cnc2c(N)nc(F)nc21	> 20	80	> 100	–	–	–	–
C[Se][C@H]1[C@H](O)[C@@H](CO)O[C@H]1n1cnc2c(=O)[nH]c(N)nc21	> 100	> 100	> 100	> 100	> 100	> 100	–
C[Se][C@H]1[C@H](O)[C@@H](CO)O[C@H]1n1ccc(=O)[nH]c1=O	–	0.005	0.006	–	–	–	–
C[Se][C@H]1[C@H](O)[C@@H](COP(=O)(N[C@@H](C)C(=O)OC(C)C)Oc2ccccc2)O[C@H]1n1ccc(=O)[nH]c1=O (stereo not given in full)	–	0.004	0.007	–	–	–	–
C[Se][C@H]1[C@H](O)[C@@H](CO)O[C@H]1n1cnc2c(N)nc(N)nc21	> 100	> 100	> 100	> 100	> 100	> 100	–
C[Se][C@H]1[C@H](O)[C@@H](CO)O[C@H]1n1cc(C)c(=O)[nH]c1=O	–	0.25	0.72	–	–	–	–
O=c1[nH]cnc2c1ncn2[C@H]1CC[C@@H](CO)O1 [DIDANOSINE]	4.2	> 100	> 100	7.1	4.6	25	–
Nc1ncnc2c1ncn2[C@H]1CC[C@@H](COP(=O)(O)OP(=O)(O)OP(=O)(O)O)O1	–	–	–	–	–	–	Activity [7]: Active
C[Se][C@H]1[C@H](O)[C@@H](CO)O[C@H]1n1cnc2c(N)nc(F)nc21	> 20	29	12	> 20	> 20	> 20	–
COc1nc(N)nc2c1ncn2[C@@H]1O[C@H](CO)[C@@H](O)[C@@H]1[Se]C	> 20	> 100	> 100	> 20	> 20	> 20	–
C[Se][C@H]1[C@H](O)[C@@H](COP(=O)(O)OP(=O)(O)OP(=O)(O)O)O[C@H]1n1cnc2c(N)ncnc21	–	–	–	–	–	–	Activity (Homo sapiens [8]): inactive; Activity (Homo sapiens [9]): inactive; Activity [10]: Active; Activity [11]: Active; Activity [12]: 80%; Activity [13]: Tde; Activity [14]: 77%; Activity [15]: 70%; Activity [16]: 94%; Activity [7]: Active; Activity [17]: Active; Activity [18]: Dose-Dependent Effect; Activity [19]: Dose-Dependent Effect; Activity [20]: Active; Activity [21]: Active
C[Se][C@H]1[C@H](O)[C@@H](COP(=O)(N[C@@H](C)C(=O)OC(C)C)Oc2ccccc2)O[C@H]1n1cnc2c(N)nc(N)nc21 (stereo not given in full)	> 0.8	2.8	5.5	–	–	–	–
Nc1ncnc2c1ncn2[C@H]1C[C@H](O)[C@@H](COP(=O)(O)OP(=O)(O)OP(=O)(O)O)O1	–	–	–	–	–	–	Activity [22]: Tde
CCCC(CC)OC(=O)[C@H](C)N[P@](=O)(OC[C@H]1O[C@@H](n2cnc3c(N)ncnc32)[C@@H]([Se]C)[C@@H]1O)Oc1ccccc1 (stereo not given in full)	2.6	> 100	> 100	4.4	5.5	–	–
Cc1cn([C@H]2C[C@H](N=[N+]=[N-])[C@@H](CO)O2)c(=O)[nH]c1=O [ZIDOVUDINE]	0.03	> 100	51	0.022	0.09	13	–
C[Se][C@H]1[C@H](O)[C@@H](COP(=O)(N[C@@H](C)C(=O)OC(C)C)Oc2ccccc2)O[C@H]1n1cnc2c(N)ncnc21 (stereo not given in full)	3.7	> 100	> 100	6.8	7	3.8	–
COc1nc(N)nc2c1ncn2[C@@H]1O[C@H](COP(=O)(N[C@@H](C)C(=O)OC(C)C)Oc2ccccc2)[C@@H](O)[C@@H]1[Se]C (stereo not given in full)	54	> 100	> 100	46	45	61	–
C[Se][C@H]1[C@H](O)[C@@H](COP(=O)(N[C@@H](C)C(=O)OC(C)C)Oc2ccccc2)O[C@H]1n1cc(C)c(=O)[nH]c1=O (stereo not given in full)	–	0.006	0.007	–	–	–	–
Nc1ccn([C@@H]2CS[C@H](CO)O2)c(=O)n1 [LAMIVUDINE]	0.52	> 100	> 100	> 100	0.85	9.8	–
